Assay results from patent US20230157975A1, “TREATMENT OF PULMONARY FIBROSIS” (REGENALL LIMITED, priority 2020, published 2023).

Assays:
[1] = tested on: bleomycin-induced lung fibrosis; details: rats; by downregulating the TGF-β1/Smad3 signalling pathway; cited from earlier work
[2] = tested on: Tendon injury; experiment: Tendon injury, recovery following treatment with Vitamin A (Example 3); format: in vivo; details: Horse subject 1 (polo pony); oral 750,000 IU twice daily, at least 4 weeks; started approximately 20 days after injury
Text: [table] Treatment with Vitamin A was initiated approximately 20 days after the initial injury. Retinyl palmitate (93.8% Retinol Equivalent) Oral 750,000 IU Twice daily (1,500,000 IU per day) Continuing (at least 4 weeks)

SMILES | Effect on bleomycin-induced lung fibrosis [1] | Functional recovery [2] | Size of the lesion by ultrasonography [2]
CC1=C(/C=C/C(C)=C/C=C/C(C)=C/C(=O)O)C(C)(C)CCC1 [RA] | ameliorates bleomycin-induced lung fibrosis | – | –
CCCCCCCCCCCCCCCC(=O)OC/C=C(C)/C=C/C=C(C)/C=C/C1=C(C)CCCC1(C)C [Vitamin A, Retinyl palmitate] | – | good | good reduction in the size of the lesion
